ChEMBL document CHEMBL5223080, “Discovery of Pyrrole-imidazole Polyamides as PD-L1 Expression Inhibitors and Their Anticancer Activity via Immune and Nonimmune Pathways” (J Med Chem, 2021)
Activity calls are given as the source filed them. The calls are words filed in the database; no cut-off is given here.

Experiments:
[1] = Binding affinity to human single stranded DNA (unknown origin) by electrophoretic mobility shift assay
DNA [2] = experiment: Binding affinity to wild type 28 nucleotide double stranded DNA (unknown origin) in PD-L1 gene promotor region at 1:1 compound to DNA ratio incubated for 24 hrs by Circular Dichroism assay; type: nucleic-acid assay
DNA [3] = experiment: Binding affinity to wild type double stranded DNA (unknown origin) at 1:1 compound to DNA ratio incubated for 24 hrs at 340 nm by Circular Dichroism assay; type: nucleic-acid assay
DNA [4] = experiment: Binding affinity to wild-type double stranded DNA (unknown origin) by assessed as decrease in compound-DNA complex at >=8 uM by competitive electrophoretic mobility shift assay; type: nucleic-acid assay
HCC827 [5] = experiment: Inhibition of PD-L1 protein expression in IFNgamma-induced human HCC827 cells measured for 36 hrs by Western blot analysis; type: functional, cell-based; details: dose 1.25-10 µM
HCC827 [6] = experiment: Inhibition of PD-L1 mRNA expression in IFNgamma-induced human HCC827 cells measured for 36 hrs by qRT-PCR analysis; type: functional, cell-based; details: dose 1.25-10 µM
HCC827 [7] = experiment: Antimigratory activity in human HCC827 cells assessed as inhibition rate at 2 uM measured after 48 hrs by Wound healing assay relative to control; type: functional; set-up: scale not given: the % may be the effect or the level left
MRC5 = experiment: Cytotoxicity against human MRC5 cells at 32 uM by standard CCK-8 assay; type: toxicity, cell-based; details: mrc5, 32 µM
HCC827 [8] = experiment: Cytotoxicity against human HCC827 cells incubated for 36 hrs by standard CCK-8 assay; type: functional, cell-based; details: for IC50: HCC827, 36 h; for Activity: dose 2-32 µM
dsDNA [9] = experiment: Binding affinity to human wild-type double stranded DNA assessed as thermal stability of compound-DNA complex by measuring change in melting temperature at stoichiometry ratio 1:1 by UV melting assay; type: nucleic-acid assay
MDA-MB-231 [10] = experiment: Cytotoxicity against human MDA-MB-231 cells incubated for 36 hrs by standard CCK-8 assay; type: functional, cell-based; details: for IC50: MDA-MB-231, 36 h; for Activity: dose 2-32 µM
MDA-MB-231 [11] = experiment: Inhibition of PD-L1 mRNA expression in IFNgamma-induced human MDA-MB-231 cells measured for 36 hrs by qRT-PCR analysis; type: functional, cell-based; details: dose 1.25-10 µM
HCC827 [12] = experiment: Induction of apoptosis in human HCC827 cells assessed as inhibition of Akt phosphorylation at 10 uM by Western blot analysis; type: functional, cell-based
dsDNA [13] = experiment: Binding affinity to human mutant double stranded DNA assessed as thermal stability of compound-DNA complex by measuring melting change in temperature at stoichiometry ratio 1:4 by UV melting assay; type: nucleic-acid assay
[14] = Induction of T-cell mediated cytotoxicity against human MDA-MB-231 cells co-cultured with Jurkat cells assessed as apoptotic cells at 8 uM incubated for 36 hrs by standard CCK-8 assay relative to control; type: functional
[15] = Induction of T-cell mediated cell killing in human HCC827 cells co-cultured with PMA-activated Jurkat T cells assessed as IL-2 production at 8 uM by ELISA relative to control; type: functional
dsDNA [16] = experiment: Binding affinity to human 5'-biotin-double stranded DNA assessed as dissociation equilibrium constant by surface plasmon resonance; type: nucleic-acid assay
DNA [17] = experiment: Binding affinity to wild type double stranded DNA (unknown origin) incubated for 24 hrs by Circular Dichroism assay; type: nucleic-acid assay
[18] = Induction of T-cell mediated cell killing in human MDA-MB-231 cells co-cultured with PMA-activated Jurkat T cells assessed as IL-2 production at 8 uM by ELISA relative to control; type: functional
MDA-MB-231 [19] = experiment: Induction of apoptosis in human MDA-MB-231 cells assessed as inhibition of pro-caspase 3 at 10 uM by Western blot analysis; type: functional, cell-based
dsDNA [20] = experiment: Binding affinity to human mutant double stranded DNA assessed as thermal stability of compound-DNA complex by measuring melting temperature change in at stoichiometry ratio 1:0.5 by UV melting assay; type: nucleic-acid assay
MDA-MB-231 [21] = experiment: Induction of apoptosis in human MDA-MB-231 cells co-cultured with human Jurkat T cells at 8 uM relative to control; type: functional
[22] = Binding affinity to DNA STAT3 binding site of PD-L1 promoter region (unknown origin) assessed as disappearance of band of wild-type double stranded DNA-STAT3 protein complex at > 8 uM by competitive electrophoretic mobility shift assay
MDA-MB-231 [23] = experiment: Inhibition of PD-L1 protein expression in IFNgamma-induced human MDA-MB-231 cells measured for 36 hrs by Western blot analysis; type: functional, cell-based; details: dose 1.25-10 µM
Jurkat = experiment: Cytotoxicity against human Jurkat cells at 8 uM incubated for 36 hrs by standard CCK-8 assay; type: toxicity, cell-based
MDA-MB-231 [24] = experiment: Antimigratory activity in human MDA-MB-231 cells assessed as inhibition rate at 0.5 to 1 uM measured after 48 hrs by Wound healing assay relative to control; type: functional; set-up: scale not given: the % may be the effect or the level left; details: dose 0.5-1 µM
HCC827 [25] = experiment: Induction of apoptosis in human HCC827 cells assessed as inhibition of pro-caspase 3 at 10 uM by Western blot analysis; type: functional, cell-based
HCC827 [26] = experiment: Induction of apoptosis in human HCC827 cells co-cultured with human Jurkat T cells at 8 uM relative to control; type: functional
Homo sapiens = species on record: Homo sapiens; experiment: Binding affinity to 5'-biotin-double stranded DNA (unknown origin) assessed as saturation of the compound-DNA complex at 350 to 500 nM by surface plasmon resonance; details: dose 350-500 nM
dsDNA [27] = experiment: Binding affinity to human wild-type double stranded DNA assessed as thermal stability of compound-DNA complex by measuring change in melting temperature at stoichiometry ratio 1:0.5 by UV melting assay; type: nucleic-acid assay
dsDNA [28] = experiment: Binding affinity to human mutant double stranded DNA assessed as thermal stability of compound-DNA complex by measuring change in melting temperature at stoichiometry ratio 1:1 by UV melting assay; type: nucleic-acid assay
[29] = Induction of T-cell mediated cytotoxicity against human HCC827 cells co-cultured with Jurkat cells assessed as apoptotic cells at 8 uM incubated for 36 hrs by standard CCK-8 assay relative to control; type: functional
dsDNA [30] = experiment: Binding affinity to human 5'-biotin-double stranded DNA assessed as association rate constant by surface plasmon resonance; type: nucleic-acid assay
HCC827 [31] = experiment: Antitumour activity against human HCC827 cells assessed as measuring interleukin-2 levels by ELISA; type: functional
dsDNA [32] = experiment: Binding affinity to human wild-type double stranded DNA assessed as thermal stability of compound-DNA complex by measuring change in melting temperature at stoichiometry ratio 1:4 by UV melting assay; type: nucleic-acid assay
MDA-MB-231 [33] = experiment: Antitumour activity against human MDA-MB-231 cells assessed as measuring interleukin-2 levels by ELISA; type: functional
MDA-MB-231 [34] = experiment: Induction of apoptosis in human MDA-MB-231 cells assessed as inhibition of Akt phosphorylation at 10 uM by Western blot analysis; type: functional, cell-based
dsDNA [35] = experiment: Binding affinity to human 5'-biotin-double stranded DNA assessed as dissociation rate constant by surface plasmon resonance; type: nucleic-acid assay
MDA-MB-231 [36] = experiment: Antimigratory activity in human MDA-MB-231 cells assessed as inhibition rate at 2 uM measured after 48 hrs by Wound healing assay relative to control; type: functional; set-up: scale not given: the % may be the effect or the level left
HCC827 [37] = experiment: Antimigratory activity in human HCC827 cells assessed as inhibition rate at 0.5 to 1 uM measured after 48 hrs by Wound healing assay relative to control; type: functional; set-up: scale not given: the % may be the effect or the level left; details: dose 0.5-1 µM
DNA [38] = experiment: Binding affinity to 5'-biotin-double stranded DNA (unknown origin) assessed as interaction with DNA to achieve steady state at 20 nM; type: nucleic-acid assay

CC(=O)Nc1cc(C(=O)Nc2cc(C(=O)Nc3cc(C(=O)Nc4cn(C)c(C(=O)Nc5cn(C)c(C(=O)NCCC(=O)Nc6cn(C)c(C(=O)NCCCC(=O)Nc7cc(C(=O)Nc8cc(C(=O)Nc9cc(C(=O)NCCC(=O)Nc%10cc(C(=O)Nc%11cn(C)c(C(=O)Nc%12cc(C(=O)NCCC(=O)NCCCN(C)C)n(C)c%12)n%11)n(C)c%10)n(C)c9)n(C)c8)n(C)c7)n6)n5)n4)n(C)c3)n(C)c2)n(C)c1.Cl
Activity [1]: inactive
Activity (DNA [2]): Active
Activity (DNA [3]): Active
Activity (DNA [4]): Active
inhibition (HCC827 [5]): Dose-Dependent Effect
inhibition (HCC827 [6]): Dose-Dependent Effect
Activity (HCC827 [7]): >70%
Activity (MRC5): Non-Toxic
IC50 (HCC827 [8]): 11.8 µM
Activity (HCC827 [8]): Dose-Dependent Effect
ΔTm (dsDNA [9]): 7 °C
IC50 (MDA-MB-231 [10]): 9.05 µM
Activity (MDA-MB-231 [10]): Dose-Dependent Effect
inhibition (MDA-MB-231 [11]): Dose-Dependent Effect
Activity (HCC827 [12]): Active
ΔTm (dsDNA [13]): 0.4 °C
Activity [14]: 82.11%
Activity [15]: 57%
Kd (dsDNA [16]): 0.0499 µM
Activity (DNA [17]): Active
Activity [18]: 60.35%
inhibition (MDA-MB-231 [19]): Active
ΔTm (dsDNA [20]): 0.1 °C
Activity (MDA-MB-231 [21]): 30.84%
Activity [22]: Active
inhibition (MDA-MB-231 [23]): Dose-Dependent Effect
Activity (Jurkat): Non-Toxic
Activity (MDA-MB-231 [24]): 50%
inhibition (HCC827 [25]): Active
Activity (HCC827 [26]): 269.14%
Activity (Homo sapiens): Active
ΔTm (dsDNA [27]): 2.9 °C
ΔTm (dsDNA [28]): 0.2 °C
Activity [29]: 70%
Ka (dsDNA [30]): 6.47 10^6/M/s
Activity (HCC827 [31]): 51.17 pg/mL
ΔTm (dsDNA [32]): 7.3 °C
Activity (MDA-MB-231 [33]): 87.89 pg/mL
Activity (MDA-MB-231 [34]): Active
Kd (dsDNA [35]): 32.3 10^-2/s
Activity (MDA-MB-231 [36]): 86.33%
Activity (HCC827 [37]): 50%

CC(=O)Nc1cc(C(=O)Nc2cc(C(=O)Nc3cc(C(=O)Nc4cn(C)c(C(=O)Nc5cn(C)c(C(=O)NCCC(=O)Nc6cn(C)c(C(=O)Nc7cc(C(=O)Nc8cc(C(=O)NCCCC(=O)Nc9cc(C(=O)Nc%10cc(C(=O)Nc%11cc(C(=O)NCCC(=O)Nc%12cc(C(=O)Nc%13cc(C(=O)Nc%14cn(C)c(C(=O)Nc%15cc(C(=O)Nc%16cc(C(=O)NCCC(=O)NCCCN(C)C)n(C)c%16)n(C)c%15)n%14)n(C)c%13)n(C)c%12)n(C)c%11)n(C)c%10)n(C)c9)n(C)c8)n(C)c7)n6)n5)n4)n(C)c3)n(C)c2)n(C)c1.Cl
Activity [1]: inactive
Activity (DNA [38]): Active
Activity (DNA [2]): Active
Activity (DNA [3]): Active
Activity (DNA [4]): Active
inhibition (HCC827 [5]): Dose-Dependent Effect
inhibition (HCC827 [6]): Dose-Dependent Effect
Activity (HCC827 [7]): >70%
Activity (MRC5): Non-Toxic
IC50 (HCC827 [8]): 23.2 µM
Activity (HCC827 [8]): Dose-Dependent Effect
ΔTm (dsDNA [9]): 8.2 °C
IC50 (MDA-MB-231 [10]): 21.7 µM
Activity (MDA-MB-231 [10]): Dose-Dependent Effect
inhibition (MDA-MB-231 [11]): Dose-Dependent Effect
ΔTm (dsDNA [13]): 0.6 °C
Activity [14]: 50.73%
Activity [15]: 31.41%
Kd (dsDNA [16]): 0.00828 µM
Activity (DNA [17]): Active
Activity [18]: 33%
ΔTm (dsDNA [20]): 0.2 °C
Activity (MDA-MB-231 [21]): 27.76%
Activity [22]: Active
inhibition (MDA-MB-231 [23]): Dose-Dependent Effect
Activity (Jurkat): Non-Toxic
Activity (MDA-MB-231 [24]): 50%
Activity (HCC827 [26]): 23.4%
Activity (Homo sapiens): Active
ΔTm (dsDNA [27]): 2.7 °C
ΔTm (dsDNA [28]): 0.3 °C
Activity [29]: 48%
Ka (dsDNA [30]): 1.28 10^6/M/s
Activity (HCC827 [31]): 28.2 pg/mL
ΔTm (dsDNA [32]): 8.6 °C
Activity (MDA-MB-231 [33]): 48.06 pg/mL
Kd (dsDNA [35]): 1.06 10^-2/s
Activity (MDA-MB-231 [36]): >70%
Activity (HCC827 [37]): 50%
